Results from ChEMBL document CHEMBL3616392, “Design, synthesis and biological evaluation of novel tetrahydroisoquinoline derivatives as potential PDE4 inhibitors” (Bioorg Med Chem Lett, 2015).

Experiments:
[1] = molecular target: 3',5'-cyclic-AMP phosphodiesterase 4B (Homo sapiens, UniProt Q07343); test: Inhibition of PDE4B isolated from human U937 cells using [3H]-cAMP as substrate after 30 mins; type: cell-free, U-937
[2] = molecular target: 3',5'-cyclic-AMP phosphodiesterase 4D (Homo sapiens) (UniProt Q08499); test: Inhibition of PDE4D isolated from human U937 cells using [3H]-cAMP as substrate at 20 uM after 30 mins; type: cell-free; details: U-937
Sequence of 3',5'-cyclic-AMP phosphodiesterase 4D (Homo sapiens) (Q08499 whole entry): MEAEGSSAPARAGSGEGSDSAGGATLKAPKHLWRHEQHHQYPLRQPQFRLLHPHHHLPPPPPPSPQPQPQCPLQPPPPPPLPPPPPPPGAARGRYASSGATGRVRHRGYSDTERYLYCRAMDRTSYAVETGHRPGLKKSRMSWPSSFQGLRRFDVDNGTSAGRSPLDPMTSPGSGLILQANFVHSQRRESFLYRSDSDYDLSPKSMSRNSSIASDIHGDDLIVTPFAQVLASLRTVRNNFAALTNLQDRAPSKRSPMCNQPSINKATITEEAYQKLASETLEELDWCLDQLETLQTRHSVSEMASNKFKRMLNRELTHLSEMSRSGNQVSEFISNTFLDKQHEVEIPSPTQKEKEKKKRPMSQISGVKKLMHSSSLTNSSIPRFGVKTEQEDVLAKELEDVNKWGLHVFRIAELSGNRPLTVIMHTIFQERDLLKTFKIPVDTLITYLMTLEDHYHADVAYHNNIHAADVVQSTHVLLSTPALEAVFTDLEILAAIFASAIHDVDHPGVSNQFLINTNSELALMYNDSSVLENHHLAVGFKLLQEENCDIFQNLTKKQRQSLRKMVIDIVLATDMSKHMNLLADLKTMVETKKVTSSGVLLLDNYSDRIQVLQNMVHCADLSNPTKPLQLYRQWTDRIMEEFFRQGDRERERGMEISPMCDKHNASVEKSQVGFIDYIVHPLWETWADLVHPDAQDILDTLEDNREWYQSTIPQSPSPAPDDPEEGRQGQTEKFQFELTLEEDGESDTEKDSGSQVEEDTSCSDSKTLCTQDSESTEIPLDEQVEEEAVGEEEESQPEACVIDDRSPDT

Sequence of 3',5'-cyclic-AMP phosphodiesterase 4B (Q07343 whole entry): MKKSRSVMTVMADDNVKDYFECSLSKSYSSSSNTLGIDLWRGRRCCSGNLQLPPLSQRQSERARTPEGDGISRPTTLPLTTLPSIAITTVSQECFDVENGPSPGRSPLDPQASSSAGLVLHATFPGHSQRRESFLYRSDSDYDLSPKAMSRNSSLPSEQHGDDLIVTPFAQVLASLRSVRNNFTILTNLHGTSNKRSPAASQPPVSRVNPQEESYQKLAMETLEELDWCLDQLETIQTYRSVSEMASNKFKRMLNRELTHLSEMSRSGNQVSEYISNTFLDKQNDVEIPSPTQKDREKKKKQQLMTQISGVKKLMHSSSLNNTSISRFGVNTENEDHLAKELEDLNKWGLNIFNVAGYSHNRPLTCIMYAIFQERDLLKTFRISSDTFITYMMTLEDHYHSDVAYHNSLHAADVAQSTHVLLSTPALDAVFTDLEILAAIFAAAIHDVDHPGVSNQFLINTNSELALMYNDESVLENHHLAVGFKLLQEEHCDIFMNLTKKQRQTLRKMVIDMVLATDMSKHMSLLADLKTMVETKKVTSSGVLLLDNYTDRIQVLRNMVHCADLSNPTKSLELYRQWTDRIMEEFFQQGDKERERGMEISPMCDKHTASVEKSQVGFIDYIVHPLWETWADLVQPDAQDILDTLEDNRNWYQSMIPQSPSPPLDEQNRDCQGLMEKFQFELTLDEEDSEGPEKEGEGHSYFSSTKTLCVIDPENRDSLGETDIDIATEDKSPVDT

Row | Compound | IC50 [1] [µM] | inhibition [2] [%]
1 | COc1cc(CN2CCc3cc(OC)c(OC4CCCC4)cc3C2)ccc1O | 26.8 | –
2 | COc1cc2c(cc1OC1CCCC1)CN(C(=O)c1ccccc1)CC2 | 23.5 | –
3 | COc1cc2c(cc1OC1CCCC1)CN(C(=O)c1ccccn1)CC2 | 37.9 | –
4 | COc1cc2c(cc1OC1CCCC1)CN(Cc1ccncc1)CC2 | 38.1 | –
5 | COc1cc2c(cc1OC1CCCC1)CN(C(=O)[C@H]1CC[C@H](N)CC1)CC2 | > 50 | –
6 | COc1cc2c(cc1OC1CCCC1)CN(C(=O)c1ccccc1OC)CC2 | 37 | –
7 | COc1cc2c(cc1OC1CCCC1)CN(Cc1ccccc1F)CC2 | 43 | –
8 | COc1cc2c(cc1OC1CCCC1)CN(C(=O)C1=C[C@@H](O)[C@@H](O)[C@H](O)C1)CC2 | > 50 | –

Continued, values first:

Row | IC50 [1] [µM] | inhibition [2] [%] | Compound
9 | 15.5 | 15.3 | COc1cc2c(cc1OC1CCCC1)CN(C(=O)c1ccccc1Cl)CC2
10 | 23.3 | – | COc1cc2c(cc1OC1CCCC1)CN(C(=O)c1ccccc1F)CC2
11 | 15.7 | 12.1 | COc1cc2c(cc1OC1CCCC1)CN(C(=O)c1ccncc1)CC2
12 | 2.3 | 17.4 | COc1cc(C(=O)N2CCc3cc(OC)c(OC4CCCC4)cc3C2)ccc1O
